# Measured values from ChEMBL document CHEMBL2040838, “Synthesis of C-4-modified zanamivir analogs as neuraminidase inhibitors and their anti-AIV activities” (Eur J Med Chem, 2012).
# Assays:
# [1] = biological target: T1, Neuraminidase (Influenza A virus, UniProt B4URF0); experiment: Inhibition of Influenza A virus (A/Indonesia/5/2005(H5N1)) […] recombinant neuraminidase using 2'-(4-methylumbelliferyl)-alpha-D-N-acetylneuraminic acid as substrate after 1 hr by fluorescence assay
# [2] = biological target: T1, Neuraminidase; experiment: Inhibition of Influenza A virus (A/Sydney/5/97(H3N2)) recombinant neuraminidase using 2'-(4- methylumbelliferyl)-alpha-D-N-acetylneuraminic acid as substrate after 1 hr by fluorescence assay; design: species or system Influenza A virus (A/Sydney/5/1997(H3N2))
# [3] = test system: Influenza A virus; experiment: Antiviral activity against Influenza A virus (A/Indonesia/5/2005(H5N1)) […] infected in MDCK cells assessed as protective rate against virus-induced cytopathic effect at 5 uM after 2 days by neutral red uptake assay; format: functional
# [4] = in vivo; conditions: Sprague-Dawley, rat, plasma, iv, 10 mg/kg
# [5] = in vivo; conditions: Sprague-Dawley, rat, po, 10 mg/kg
# [6] = in vivo; conditions: Sprague-Dawley, rat, po, 10 mg/kg; remark: listed apart in the source
# [7] = in vivo; conditions: Sprague-Dawley, rat, plasma, po, 10 mg/kg
# [8] = test system: Influenza A virus; experiment: Antiviral activity against Influenza A virus (A/Indonesia/5/2005(H5N1)) […] infected in MDCK cells assessed as protective rate against virus-induced cytopathic effect at 4 uM after 2 days by neutral red uptake assay; format: functional
# [9] = Clearance in Sprague-Dawley rat at 2 mg/kg, iv; format: ADME, organism-based; design: dose 2 mg/kg, route intravenous; conditions: in vivo
# [10] = Volume of distribution in Sprague-Dawley rat at 2 mg/kg, iv; format: ADME, organism-based; design: dose 2 mg/kg, route intravenous; conditions: in vivo
# [11] = in vivo; conditions: Sprague-Dawley, rat, iv, 2 mg/kg
# T1 sequence (B4URF0 whole entry): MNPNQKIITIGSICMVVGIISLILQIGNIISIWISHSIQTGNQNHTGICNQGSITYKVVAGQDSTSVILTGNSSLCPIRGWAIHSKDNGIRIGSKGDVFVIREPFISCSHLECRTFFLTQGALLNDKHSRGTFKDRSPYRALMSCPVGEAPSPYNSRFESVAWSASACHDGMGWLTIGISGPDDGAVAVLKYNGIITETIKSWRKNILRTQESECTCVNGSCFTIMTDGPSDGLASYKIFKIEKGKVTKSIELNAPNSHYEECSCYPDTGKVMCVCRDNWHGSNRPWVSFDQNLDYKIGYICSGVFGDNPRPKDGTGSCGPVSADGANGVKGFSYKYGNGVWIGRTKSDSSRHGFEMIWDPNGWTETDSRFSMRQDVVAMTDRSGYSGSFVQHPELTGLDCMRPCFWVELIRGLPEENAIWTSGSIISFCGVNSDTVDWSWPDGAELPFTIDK
Compound,IC50 [2],IC50 [1],Activity [3],Activity [8],further results
CC(=O)N[C@H]1[C@H]([C@H](O)[C@H](O)CO)OC(C(=O)O)=C(C/C=C/c2ccc(C)cc2)[C@@H]1O,,,,,Ki [1]: 7.3 µM
CC(=O)N[C@H]1[C@H]([C@H](O)[C@H](O)CO)OC(C(=O)O)=C[C@@H]1NC(=O)N[C@H](CC(N)=O)C(=O)O,22.3 µM,77.3 µM,,,
CC(=O)N[C@H]1[C@H]([C@H](O)[C@H](O)CO)OC(C(=O)O)=C[C@@H]1NC(=O)Nc1ccc(C)cc1,777 µM,933 µM,0%,,
CC(=O)N[C@H]1[C@H]([C@H](O)[C@H](O)CO)OC(C(=O)O)=C[C@@H]1NC(=O)Nc1ccc(Cl)cc1,> 1000 µM,> 1000 µM,0%,,
CC(=O)N[C@H]1[C@H]([C@H](O)[C@H](O)CO)OC(C(=O)O)=C[C@@H]1NC(=O)Nc1ccc(F)cc1,> 1000 µM,> 1000 µM,0%,,
COc1ccc(NC(=O)N[C@H]2C=C(C(=O)O)O[C@@H]([C@H](O)[C@H](O)CO)[C@@H]2NC(C)=O)cc1,848 µM,910 µM,6.9%,,
CC(=O)N[C@H]1[C@H]([C@H](O)[C@H](O)CO)OC(C(=O)O)=C[C@@H]1NC(=O)NCc1ccco1,6.6 µM,38.4 µM,58%,,AUC(0-t) [4]: 14000 ng·h/mL; bioavailability [5]: 2.73%; half-life [6]: 340 min; AUC(0-t) [7]: 381 ng·h/mL
CC(=O)N[C@H]1[C@H]([C@H](O)[C@H](O)CO)OC(C(=O)O)=C[C@@H]1NC(=O)NCc1ccccc1,705 µM,> 1000 µM,,,
CC(=O)N[C@H]1[C@H]([C@H](O)[C@H](O)CO)OC(C(=O)O)=C[C@@H]1NC(=S)Nc1ccccc1,> 1000 µM,> 1000 µM,13.6%,,
CC(=O)N[C@H]1[C@H]([C@H](O)[C@H](O)CO)OC(C(=O)O)=C[C@@H]1NC(=S)Nc1ccc(C(F)(F)F)cc1,894 µM,> 1000 µM,34.4%,,
CC(=O)N[C@H]1[C@H]([C@H](O)[C@H](O)CO)OC(C(=O)O)=C[C@@H]1NC(=S)Nc1cccc(C(F)(F)F)c1,> 1000 µM,> 1000 µM,0%,,
COc1cccc(NC(=S)N[C@H]2C=C(C(=O)O)O[C@@H]([C@H](O)[C@H](O)CO)[C@@H]2NC(C)=O)c1,> 1000 µM,> 1000 µM,0%,,
CC(=O)N[C@H]1[C@H]([C@H](O)[C@H](O)CO)OC(C(=O)O)=C[C@@H]1NC(=S)Nc1ccccc1F,57.1 µM,396 µM,14.8%,,
COc1ccccc1NC(=S)N[C@H]1C=C(C(=O)O)O[C@@H]([C@H](O)[C@H](O)CO)[C@@H]1NC(C)=O,89.6 µM,578 µM,11.7%,,
CC(=O)N[C@H]1[C@H]([C@H](O)[C@H](O)CO)OC(C(=O)O)=C[C@@H]1NC(=S)Nc1ccccc1Br,> 1000 µM,> 1000 µM,2.9%,,
CC(=O)N[C@H]1[C@H]([C@H](O)[C@H](O)CO)OC(C(=O)O)=C[C@@H]1NC(=S)Nc1cccc2ccccc12,674 µM,901 µM,0%,,
CCNC(=S)N[C@H]1C=C(C(=O)O)O[C@@H]([C@H](O)[C@H](O)CO)[C@@H]1NC(C)=O,612 µM,298 µM,,27.8%,
CC(=O)N[C@H]1[C@H]([C@H](O)[C@H](O)CO)OC(C(=O)O)=C[C@@H]1NC(=S)NCCCl,100 µM,67.2 µM,,20.3%,
CCCCNC(=S)N[C@H]1C=C(C(=O)O)O[C@@H]([C@H](O)[C@H](O)CO)[C@@H]1NC(C)=O,64.5 µM,21.4 µM,,32.6%,

Compound,IC50 [2],IC50 [1],Activity [3],Activity [8],further results
CC(=O)N[C@H]1[C@H]([C@H](O)[C@H](O)CO)OC(C(=O)O)=C[C@@H]1NC(=S)NC1CC1,550 µM,295 µM,,11.3%,
CC(=O)N[C@H]1[C@H]([C@H](O)[C@H](O)CO)OC(C(=O)O)=C[C@@H]1NC(=O)NCC(=O)O,530 µM,113 µM,,6.2%,
CC(=O)N[C@H]1[C@H]([C@H](O)[C@H](O)CO)OC(C(=O)O)=C[C@@H]1NC(=O)N[C@@H](C)C(=O)O,663 µM,690 µM,,0%,
CC(=O)N[C@H]1[C@H]([C@H](O)[C@H](O)CO)OC(C(=O)O)=C[C@@H]1NC(=O)N[C@H](C(=O)O)C(C)C,54.4 µM,917 µM,,0%,
CSCC[C@H](NC(=O)N[C@H]1C=C(C(=O)O)O[C@@H]([C@H](O)[C@H](O)CO)[C@@H]1NC(C)=O)C(=O)O,413 µM,406 µM,,0%,
CC(=O)N[C@H]1[C@H]([C@H](O)[C@H](O)CO)OC(C(=O)O)=C[C@@H]1NC(=O)N[C@@H](Cc1ccccc1)C(=O)O,629 µM,> 1000 µM,,0%,
CC(=O)N[C@H]1[C@H]([C@H](O)[C@H](O)CO)OC(C(=O)O)=C[C@@H]1NC(=O)N1CCC[C@H]1C(=O)O,574 µM,> 1000 µM,,0%,
CC(=O)N[C@H]1[C@H]([C@H](O)[C@H](O)CO)OC(C(=O)O)=C[C@@H]1NC(=O)N[C@H](C(=O)O)[C@@H](C)O,488 µM,392 µM,,0%,
CC(=O)N[C@H]1[C@H]([C@H](O)[C@H](O)CO)OC(C(=O)O)=C[C@@H]1NC(=O)N[C@@H](CC(N)=O)C(=O)O,0.58 µM,2.72 µM,,8.7%,
CC(=O)N[C@H]1[C@H]([C@H](O)[C@H](O)CO)OC(C(=O)O)=C[C@@H]1NC(=O)N[C@@H](CCC(N)=O)C(=O)O,58.1 µM,103 µM,,,
CC(=O)N[C@H]1[C@H]([C@H](O)[C@H](O)CO)OC(C(=O)O)=C[C@@H]1NC(=O)NCC(=O)NCC(=O)O,68.5 µM,70.4 µM,,37.1%,
CC(=O)N[C@H]1[C@H]([C@H](O)[C@H](O)CO)OC(C(=O)O)=C[C@@H]1NC(=O)N[C@@H](C)C(=O)NCC(=O)O,101 µM,126 µM,,,
CC(=O)N[C@H]1[C@H]([C@H](O)[C@H](O)CO)OC(C(=O)O)=C[C@@H]1N1CCOCC1,567 µM,517 µM,,26.8%,
CC(=O)N[C@H]1[C@H]([C@H](O)[C@H](O)CO)OC(C(=O)O)=C[C@@H]1N1CCCC(C(=O)O)C1 (some centres undefined),496 µM,532 µM,,,
CC(=O)N[C@H]1[C@H]([C@H](O)[C@H](O)CO)OC(C(=O)O)=C[C@@H]1N1CCC2(CC1)OCCO2,511 µM,738 µM,,0%,
CC(=O)N[C@H]1[C@H]([C@H](O)[C@H](O)CO)OC(C(=O)O)=C[C@@H]1N1CCN(c2ccccc2)CC1,836 µM,761 µM,,,
CC(=O)N[C@H]1[C@H]([C@H](O)[C@H](O)CO)OC(C(=O)O)=C[C@@H]1N1CCN(c2cccc(C(F)(F)F)c2)CC1,271 µM,122 µM,,,
CC(=O)N[C@H]1[C@H]([C@H](O)[C@H](O)CO)OC(C(=O)O)=C[C@@H]1NC(=N)N [ZANAMIVIR],,,67.2%,,bioavailability [5]: 2.7%; clearance [9]: 1.42 mL/min/kg; half-life [6]: 15 min; Vd [10]: 0.03 L/kg; half-life [11]: 24 min
